Results: paper PMC5701133, “Structural Mechanism of the Oxygenase JMJD6 Recognition by the Extraterminal (ET) Domain of BRD4” (Scientific Reports, 2017)

What was measured:
[1] = system: BRD4 and JMJD6 interaction; test: Co-immunoprecipitation with added nucleic acid: BRD4/JMJD6 association; assay type: binding; settings: for association of Flag-BRD4WT with JMJD6 on addition of nucleic acid (in words): double-transfected Flag-BRD4 and His-JMJD6 HEK293T lysate, 1 μM ssRNA, dsDNA or ssDNA; for BRD4/JMJD6 association, endogenous and single-transfected IP, on addition of nucleic acid (in words): endogenous and single-transfected HEK293T IP experiments
Method: Incubate at 4 °C overnight.

JMJD6 = settings: biochemical study; ref [21]; cited from earlier work

Substance	association of Flag-BRD4WT with JMJD6 on addition of nucleic acid (in words) [1]	BRD4/JMJD6 association, endogenous and single-transfected IP, on addition of nucleic acid (in words) [1]	interaction with JMJD6 (in words) (JMJD6)
ssDNA: 5′-TTTCTAGATCAGGAGCTGTCGGAAGCTATCC-3′; 31 nt (DNA, backbone not given here)	no improvements on JMJD6 interaction with BRD4	no additional effect	–
ssRNA: 5′-AUACGAUGCUUUACGGUGCUAUUUUGU-3′; 27 nt (RNA, backbone not given here)	appears much stronger	no additional effect	can interact
